Source: patent US20240376108A1, “SALT AND CRYSTAL FORM OF PYRAZOLE-CONTAINING POLYCYCLIC DERIVATIVE, AND PREPARATION METHOD THEREFOR AND USE THEREOF” (Shanghai Hansoh Biomedical Co., Ltd., priority 2021, published 2024)

Assays:
[1] = Pharmacokinetic assay of the salt forms in rats (10 mg/kg); type: in vivo; settings: SD rats; for exposure AUC and maximum plasma concentration Cmax compared with the free base: 10 mg/kg; for AUC(0-t) / MRT inf / half-life / Tmax / Cmax: male, rat, po, p.o. 10 mg/kg, plasma, vehicle 0.5% HPMC; for AUC(0-t): read-out: Area under curve AUC0-t; for MRT inf: read-out: Average residence time MRT0-∞; for half-life: read-out: Half life t1/2 (converted); for Tmax: read-out: Peak time tmax; for Cmax: read-out: Plasma concentration Cmax
Method: 2.3 Pharmacokinetic assay of the methanesulfonate in rats
2.3.1. Study objective: SD rats were used as test animals. The pharmacokinetic behavior of various salt forms of 2-(2-cyano-5-oxo-8-(trifluoromethyl)pyrazolo[1,5-a]pyrido[3,2-e]pyrimidin-4(5H)-yl)-N-(5-fluoropyridin-2-yl)acetamide was studied in rat body (plasma) by orally administration at a dose of 10 mg/kg.
2.3.2.4 Administration: After an overnight fast, male SD rats (3 rats per group) were administered p.o. with the test compound at a dose of 10 mg/kg and a volume of 10 mL/kg.
2.3.2.5 Sample collection: 0.2 mL of blood was taken from the jugular vein of the rat before administration and at 0, 0.5, 1, 2, 4, 6, 8 and 24 hours after administration. The samples were stored in EDTA-K2 tubes, and centrifuged for 6 minutes at 4° C., 6000 rpm to separate the plasma. The plasma samples were stored at −80° C.
1) 160 μL of acetonitrile was added to 40 μL of the plasma sample for precipitation, and then the mixture was centrifuged at 3500×g for 5 to 20 minutes.
2) After the above process, 100 μL of the supernatant was taken to analyze the concentration of the test compound by LC/MS/MS.
2.3.2.7 Liquid chromatography analysis • Liquid chromatography condition: Shimadzu LC-20AD pump • Mass spectrometry condition: AB Sciex API 4000 mass spectrometer • Chromatographic column: phenomenex Gemiu 5 um C18 50×4.6 mm • Mobile phase: Eluent A was 0.1% formic acid in water, and Eluent B was acetonitrile • Flow rate: 0.8 mL/min • Elution time: 0-4.0 minutes, the eluent is as follows:
The main parameters of pharmacokinetics were calculated by WinNonlin 8.2.

[2] = Solid stability experiment (high temperature, high humidity, high temperature and high humidity); type: physicochemical
Method: 4.1.1 Experimental objective: To investigate the physical and chemical stability of the crystal form of the compound under the conditions of high temperature, high humidity, as well as high temperature and high humidity, so as to provide a basis for crystal form screening and storage of the crystal form of the compound.
The content of the salt was determined by HPLC using the external standard method, and the change of relevant substances was calculated by using the chromatographic peak area normalization method.

[3] = Hygroscopicity experiment (DVS); type: physicochemical; settings: 25° C.
Text: 7.1 Hygroscopicity experiment of crystal forms of different salts of compound 2-(2-cyano-5-oxo-8-(trifluoromethyl)pyrazolo[1,5-a]pyrido[3,2-e]pyrimidin-4(5H)-yl)-N-(5-fluoropyridin-2-yl)acetamide
7.1.1 Experimental objective: To investigate the hygroscopicity of crystal forms of different salts of compound 2-(2-cyano-5-oxo-8-(trifluoromethyl)pyrazolo[1,5-a]pyrido[3,2-e]pyrimidin-4(5H)-yl)-N-(5-fluoropyridin-2-yl)acetamide at different relative humidity, so as to provide a basis for storage.
7.1.2 Experimental protocol: Crystal forms of different salts of the compound were placed in saturated water vapor with different relative humidity to achieve dynamic equilibrium between the compound and water vapor, and the percentage of hygroscopic weight gain of the compound after equilibrium was calculated.

[4] = High humidity (92.5% RH), Day 7
[5] = High humidity (92.5% RH), Day 14
[6] = High temperature (60° C.), Day 7
[7] = High temperature (60° C.), Day 14
[8] = High temperature and high humidity (50° C.&75% RH), Day 7
[9] = High temperature and high humidity (50° C.&75% RH), Day 14
[10] = Cycle 1, target relative humidity 0.0%
[11] = Cycle 1, target relative humidity 10.0%
[12] = Cycle 1, target relative humidity 20.0%
[13] = Cycle 1, target relative humidity 30.0%
[14] = Cycle 1, target relative humidity 40.0%
[15] = Cycle 1, target relative humidity 50.0%
[16] = Cycle 1, target relative humidity 60.0%
[17] = Cycle 1, target relative humidity 70.0%
[18] = Cycle 1, target relative humidity 80.0%
[19] = Cycle 1, target relative humidity 90.0%
[20] = Cycle 1, target relative humidity 95.0%
[21] = Cycle 2, target relative humidity 0.0%
[22] = Cycle 2, target relative humidity 10.0%
[23] = Cycle 2, target relative humidity 20.0%
[24] = Cycle 2, target relative humidity 30.0%
[25] = Cycle 2, target relative humidity 40.0%
[26] = Cycle 2, target relative humidity 50.0%
[27] = Cycle 2, target relative humidity 60.0%
[28] = Cycle 2, target relative humidity 70.0%
[29] = Cycle 2, target relative humidity 80.0%
[30] = Cycle 2, target relative humidity 90.0%
[31] = Cycle 2, target relative humidity 95.0%

CCS(=O)(=O)O.N#Cc1cc2n(CC(=O)Nc3ccc(F)cn3)c(=O)c3ccc(C(F)(F)F)nc3n2n1 [Ethanesulfonate (crystal form A), 2-(2-cyano-5-oxo-8-(trifluoromethyl)pyrazolo[1,5-a]pyrido[3,2-e]pyrimidin-4(5H)-yl)-N-(5-fluoropyridin-2-yl)acetamide ethanesulfonate]
exposure AUC and maximum plasma concentration Cmax compared with the free base [1]: superior
AUC(0-t) [1]: 30300 ng·h/mL
MRT inf [1]: 4.9 h
half-life [1]: 2.6 h
Tmax [1]: 4 h
Cmax [1]: 3840 ng/mL
solid stability under high temperature ([2]; 60° C., 7 and 14 days): stable
solid stability under high humidity ([2]; 92.5% RH, 7 and 14 days): stable
% increase of total impurities [2, 4]: <0.1%
% maximum increase of single impurity [2, 4]: <0.1%
% increase of total impurities [2, 5]: <0.1%
% maximum increase of single impurity [2, 5]: <0.1%
% increase of total impurities [2, 6]: >0.2%
% maximum increase of single impurity [2, 6]: <0.1%
% increase of total impurities [2, 7]: <0.1%
% maximum increase of single impurity [2, 7]: <0.1%
% increase of total impurities [2, 8]: >0.3%
% maximum increase of single impurity [2, 8]: >0.1%
% increase of total impurities [2, 9]: >0.2%
% maximum increase of single impurity [2, 9]: >0.1%
% percentage of mass change, Desorption [3, 10]: −0.012%
% percentage of mass change, Sorption [3, 10]: 0.000%
% percentage of mass change, Desorption [3, 11]: 0.042%
% percentage of mass change, Sorption [3, 11]: 0.051%
% percentage of mass change, Desorption [3, 12]: 0.090%
% percentage of mass change, Sorption [3, 12]: 0.094%
% percentage of mass change, Desorption [3, 13]: 0.137%
% percentage of mass change, Sorption [3, 13]: 0.139%
% percentage of mass change, Desorption [3, 14]: 0.192%
% percentage of mass change, Sorption [3, 14]: 0.183%
% percentage of mass change, Desorption [3, 15]: 0.260%
% percentage of mass change, Sorption [3, 15]: 0.231%
% percentage of mass change, Desorption [3, 16]: 0.334%
% percentage of mass change, Sorption [3, 16]: 0.297%
% percentage of mass change, Desorption [3, 17]: 0.442%
% percentage of mass change, Sorption [3, 17]: 0.401%
% percentage of mass change, Desorption [3, 18]: 0.625%
% percentage of mass change, Sorption [3, 18]: 0.572%
% percentage of mass change, Desorption [3, 19]: 1.135%
% percentage of mass change, Sorption [3, 19]: 1.025%
% percentage of mass change, Desorption [3, 20]: 1.927%
% percentage of mass change, Sorption [3, 20]: 1.927%
% percentage of mass change, Desorption [3, 21]: −0.016%
% percentage of mass change, Sorption [3, 21]: −0.012%
% percentage of mass change, Desorption [3, 22]: 0.035%
% percentage of mass change, Sorption [3, 22]: 0.037%
% percentage of mass change, Desorption [3, 23]: 0.083%
% percentage of mass change, Sorption [3, 23]: 0.083%
% percentage of mass change, Desorption [3, 24]: 0.130%
% percentage of mass change, Sorption [3, 24]: 0.127%
% percentage of mass change, Desorption [3, 25]: 0.184%
% percentage of mass change, Sorption [3, 25]: 0.174%
% percentage of mass change, Desorption [3, 26]: 0.250%
% percentage of mass change, Sorption [3, 26]: 0.228%
% percentage of mass change, Desorption [3, 27]: 0.321%
% percentage of mass change, Sorption [3, 27]: 0.295%
% percentage of mass change, Desorption [3, 28]: 0.421%
% percentage of mass change, Sorption [3, 28]: 0.388%
% percentage of mass change, Desorption [3, 29]: 0.584%
% percentage of mass change, Sorption [3, 29]: 0.541%
% percentage of mass change, Desorption [3, 30]: 1.020%
% percentage of mass change, Sorption [3, 30]: 0.942%
% percentage of mass change, Desorption [3, 31]: 1.683%
% percentage of mass change, Sorption [3, 31]: 1.683%

Br.N#Cc1cc2n(CC(=O)Nc3ccc(F)cn3)c(=O)c3ccc(C(F)(F)F)nc3n2n1 [Hydrobromide (crystal form B), 2-(2-cyano-5-oxo-8-(trifluoromethyl)pyrazolo[1,5-a]pyrido[3,2-e]pyrimidin-4(5H)-yl)-N-(5-fluoropyridin-2-yl)acetamide hydrobromide]
exposure AUC and maximum plasma concentration Cmax compared with the free base [1]: superior
AUC(0-t) [1]: 16800 ng·h/mL
MRT inf [1]: 4.4 h
half-life [1]: 2.6 h
Tmax [1]: 1 h
Cmax [1]: 2470 ng/mL
% percentage of mass change, Desorption [3, 14]: 4.247%
% percentage of mass change, Sorption [3, 14]: 4.140%
% percentage of mass change, Desorption [3, 15]: 4.359%
% percentage of mass change, Sorption [3, 15]: 4.233%
% percentage of mass change, Desorption [3, 16]: 4.448%
% percentage of mass change, Sorption [3, 16]: 4.321%
% percentage of mass change, Desorption [3, 17]: 4.532%
% percentage of mass change, Sorption [3, 17]: 4.415%
% percentage of mass change, Desorption [3, 18]: 4.627%
% percentage of mass change, Sorption [3, 18]: 4.529%
% percentage of mass change, Desorption [3, 19]: 4.787%
% percentage of mass change, Sorption [3, 19]: 4.715%
% percentage of mass change, Desorption [3, 20]: 4.947%
% percentage of mass change, Sorption [3, 20]: 4.947%
% percentage of mass change, Desorption [3, 21]: −0.019%
% percentage of mass change, Sorption [3, 21]: −0.007%
% percentage of mass change, Desorption [3, 22]: 0.124%
% percentage of mass change, Sorption [3, 22]: 0.070%
% percentage of mass change, Desorption [3, 23]: 0.220%
% percentage of mass change, Sorption [3, 23]: 0.153%
% percentage of mass change, Desorption [3, 24]: 3.962%
% percentage of mass change, Sorption [3, 24]: 3.900%
% percentage of mass change, Desorption [3, 25]: 4.112%
% percentage of mass change, Sorption [3, 25]: 4.030%
